Laboratory results: patent US20260001853A1, “ASCORBIC ACID DERIVATIVE OR SALT THEREOF, AND COSMETIC THEREOF” (SEIWA KASEI COMPANY, LIMITED, priority 2022, published 2026)

What was measured:
B16 melanoma 4A5 cells = assay: Melanin production inhibitory effect (theophylline-induced melanin production); assay type: cell-based, mouse; conditions: melanin production inhibition rate, sample at a concentration of 10 mM or less, 3 days culture, theophylline 1 mmol/L, N=4
Protocol: As a test of the whitening effect, the effect on theophylline-induced melanin production in B16 melanoma 4A5 cells was evaluated for the ascorbic acid derivatives of the present invention according to the following procedure. A similar evaluation was also performed for a known ascorbic acid derivative for comparison. The results are shown in Tables 9 to 11. • (1) B16 mouse melanoma 4A5 cells were seeded in a 48-well plate at a cell density of 8.0×10^3 cells/well. • (2) After culturing for 24 hours in Dulbecco's modified Eagle's medium (manufactured by SIGMA, hereinafter abbreviated as “D-MEM”) containing 10% fetal bovine serum, the medium was replaced with D-MEM containing 10% fetal bovine serum containing theophylline (final concentration 1 mmol/L) and a specified concentration of a sample. • (3) After culturing for 3 days in the presence of the sample, the medium was removed using an aspirator, distilled water was added, and the cells were disrupted by ultrasonication. • (4) The amount of protein was then quantified using a BCA protein assay kit (manufactured by PIERCE), and the amount of melanin produced was measured by an alkali solubilization method. Sodium hydroxide was added to the cell lysate to a final concentration of 1 mol/L, and the solution was dissolved by heating (60° C., 30 minutes), thereafter the absorbance at 405 nm was measured using a microplate reader. The amount of melanin was calculated from a calibration curve prepared using synthetic melanin (SIGMA) as a standard. The amount of melanin per unit protein was calculated by dividing the amount of melanin by the amount of protein. • (5) The melanin production inhibition rate was calculated using the following formula.
[In the formula, A represents the amount of melanin per unit protein (g/g) when the sample was added, B represents the amount of melanin per unit protein (g/g) in the normal group, and C represents the amount of melanin per unit protein (g/g) in the control group.]
The melanin production inhibition rate when the sample was measured at a concentration of 10 mM or less is expressed as follows. The measurement was performed with N=4. • <20%: ± • 20-40%: + • 40-60%: ++ • 60-100%: +++

[1] = Stability test (residual rate by HPLC, odor, coloring); assay type: physicochemical; conditions: 1% aqueous solution; for Coloring / Odor: total score of 10 panelists
Protocol: With a dilute potassium hydroxide aqueous solution, 1% aqueous solution of each test sample was adjusted to pH 6, placed in a 50 mL screw tube, sealed, […], and then subjected to HPLC measurement (using a liquid chromatograph manufactured by Shimadzu Corporation) to determine the residual rate from the peak area. The residual rate, odor, and coloring degree were evaluated according to the following methods and criteria.
Residual rate: • ⊚: 90% or more • ◯: 80% or more, less than 90% • Δ: 60% or more, less than 80% • x: 20% or more, less than 60% • xx: Less than 20%
Evaluation was made by 10 panelists according to the following criteria. • 3: Almost odorless • 2: There is a slight strange odor. • 1: A strong odor is detected.
Based on the evaluation results, the following classification was made: • ⊚: Total score of 10 panelists is 25 or more • ◯: Total score of 10 panelists is 20-24 • Δ: Total score of 10 panelists is 16-19 • x: The total score of 10 panelists is 15 or less
Evaluation was made by 10 panelists according to the following criteria. • 3: Almost no change compared to immediately after preparation. • 2: Color changes compared to immediately after preparation. • 1: Strongly colored compared to immediately after preparation.
Based on the evaluation results, the following classification was made: • ◯: Total score of 10 panelists is 25 or more • Δ: Total score of 10 panelists is 16-24 • x: The total score of 10 panelists is 15 or less

[2] = system: Normal human dermal fibroblasts; assay: Collagen production promoting effect (ELISA of supernatant); assay type: cell-based; conditions: amount of collagen produced, % with control group taken as 100%; sample at 10 mmol/L or less, 48 hours, N=3
Protocol: Normal human dermal fibroblasts were prepared in D-MEM containing 5% (v/v) fetal bovine serum to a cell density of […] cells/well, and pre incubated on a 96-well plate for 24 hours. After removing the medium, samples prepared to a predetermined concentration in D-MEM containing 5% (v/v) fetal bovine serum were added to each well and cultured for 48 hours. After completion of the culture, the amount of free collagen in the supernatant was quantified by ELISA method. The measurement was performed with N=3.
(§1) The amount of collagen produced when the samples were measured at a concentration of 10 mmol/L or less was compared with that of the control group, and the results (% values when the control group is taken as 100%) are shown in Tables 15 to 17 based on the following criteria. • <100%: ± • 100-120%: + • 120%: ++

[3] = system: Normal human dermal fibroblasts (NHDF); assay: Hyaluronic acid production promoting effect (ELISA of supernatant); assay type: cell-based; conditions: amount of hyaluronic acid produced, % with control group taken as 100%; sample at 10 mmol/L or less, 48 hours, N=3
Protocol: Normal human dermal fibroblasts (NHDF) were prepared in D-MEM containing 5% (v/v) fetal bovine serum to a cell density of 2.5× 10^4 cells/well, and then pre-incubated on a 96-well plate for 24 hours. After removing the medium, samples prepared in serum-free D-MEM were added to each well and cultured for 48 hours. After the culture was completed, the amount of hyaluronic acid in the supernatant was quantified by ELISA method. The measurement was performed with N=3.
as §1, with “of hyaluronic acid” for “of collagen”, “Tables 18” for “Tables 15”, “to 20” for “to 17”, “• 120-150%:” for “• 120%:”, “++ • 150%: +++” for “++”

[4] = pH 6, stored at 50° C., four weeks later
[5] = pH 6, stored at 50° C., two weeks later

Compound	Melanin production inhibition effect (B16 melanoma 4A5 cells)	Residual rate ([1]; pH 6, 50° C., initial)	Coloring ([1]; pH 6, 50° C., initial)	Odor ([1]; pH 6, 50° C., initial)	Residual rate [1, 4]	Coloring [1, 4]	Odor [1, 4]	Residual rate [1, 5]	Coloring [1, 5]	Odor [1, 5]	Collagen production promoting effect [2]	Hyaluronic acid production promoting effect [3]
CCCCCCCCCCCCOC1=C(OCC(C)(C)O)C(=O)O[C@@H]1[C@@H](O)CO [Synthesis Example 8, 2-O-(2-hydroxyisobutyl)-3-O-dodecyl ascorbic acid]	++ (40-60%: ++)	⊚ (⊚: 90% or more)	◯ (◯: Total score of 10 panelists is 25 or more)	◯ (◯: Total score of 10 panelists is 20-24)	⊚ (⊚: 90% or more)	◯ (◯: Total score of 10 panelists is 25 or more)	◯ (◯: Total score of 10 panelists is 20-24)	⊚ (⊚: 90% or more)	◯ (◯: Total score of 10 panelists is 25 or more)	◯ (◯: Total score of 10 panelists is 20-24)	++ (120%: ++)	+++ (150%: +++)
CCCCOCC(O)COC1=C(OCC(C)(C)O)C(=O)OC1C(O)CO (stereo not drawn) [Synthesis Example 14, 2-O-(2-hydroxyisobutyl)-3-O-(2-hydroxy-3-O-butyl) ascorbic acid]	++ (40-60%: ++)	⊚ (⊚: 90% or more)	◯ (◯: Total score of 10 panelists is 25 or more)	⊚ (⊚: Total score of 10 panelists is 25 or more)	⊚ (⊚: 90% or more)	◯ (◯: Total score of 10 panelists is 25 or more)	◯ (◯: Total score of 10 panelists is 20-24)	⊚ (⊚: 90% or more)	◯ (◯: Total score of 10 panelists is 25 or more)	⊚ (⊚: Total score of 10 panelists is 25 or more)	++ (120%: ++)	++ (120-150%: ++)
CC(C)(O)COC1=C(OCC(C)(C)O)[C@@H]([C@@H](O)CO)OC1=O [Synthesis Example 17, 2,3-di-O-(2-hydroxyisobutyl) ascorbic acid]	+ (20-40%: +)	⊚ (⊚: 90% or more)	◯ (◯: Total score of 10 panelists is 25 or more)	◯ (◯: Total score of 10 panelists is 20-24)	⊚ (⊚: 90% or more)	◯ (◯: Total score of 10 panelists is 25 or more)	◯ (◯: Total score of 10 panelists is 20-24)	⊚ (⊚: 90% or more)	◯ (◯: Total score of 10 panelists is 25 or more)	◯ (◯: Total score of 10 panelists is 20-24)	++ (120%: ++)	++ (120-150%: ++)
CCCCCCCCCCCCCCOC1=C(OCC(C)(C)O)[C@@H]([C@@H](O)CO)OC1=O [Synthesis Example 24, 2-O-tetradecyl-3-O-(2-hydroxyisobutyl) ascorbic acid]	+++ (60-100%: +++)	⊚ (⊚: 90% or more)	◯ (◯: Total score of 10 panelists is 25 or more)	◯ (◯: Total score of 10 panelists is 20-24)	⊚ (⊚: 90% or more)	◯ (◯: Total score of 10 panelists is 25 or more)	◯ (◯: Total score of 10 panelists is 20-24)	⊚ (⊚: 90% or more)	◯ (◯: Total score of 10 panelists is 25 or more)	◯ (◯: Total score of 10 panelists is 20-24)	++ (120%: ++)	++ (120-150%: ++)
CCCCCCCCCCCCCCCCOC1=C(OCC(C)(C)O)[C@@H]([C@@H](O)CO)OC1=O [Synthesis Example 25, 2-O-hexadecyl-3-O-(2-hydroxyisobutyl) ascorbic acid]	+ (20-40%: +)										++ (120%: ++)	++ (120-150%: ++)
C=CCOC1=C(OCC(C)(C)O)[C@@H]([C@@H](O)CO)OC1=O [Synthesis Example 26, 2-O-allyl-3-O-(2-hydroxyisobutyl) ascorbic acid]	+ (20-40%: +)										++ (120%: ++)	++ (120-150%: ++)
CC(C)(O)COC1=C(OCc2ccccc2)C(=O)O[C@@H]1[C@@H](O)CO [Synthesis Example 27, 2-O-benzyl-3-O-(2-hydroxyisobutyl) ascorbic acid]	++ (40-60%: ++)										++ (120%: ++)	+++ (150%: +++)
CCCOC1=C(OCC(C)(C)O)C(=O)O[C@@H]1[C@@H](O)CO [Synthesis Example 32, 2-O-(2-hydroxyisobutyl)-3-O-propylascorbic acid]	++ (40-60%: ++)										++ (120%: ++)	++ (120-150%: ++)
CCCOC1=C(OCC(C)(C)O)[C@@H]([C@@H](O)CO)OC1=O [Synthesis Example 33, 2-O-propyl-3-O-(2-hydroxyisobutyl) ascorbic acid]	++ (40-60%: ++)										++ (120%: ++)	++ (120-150%: ++)
CC(O)COC1=C(OCC(C)(C)O)C(=O)O[C@@H]1[C@@H](O)CO (stereo partly drawn) [Synthesis Example 34, 2-O-(2-hydroxyisobutyl)-3-O-(2-hydroxypropyl) ascorbic acid]	+++ (60-100%: +++)										+ (100-120%: +)	++ (120-150%: ++)
CCC(O)COC1=C(OCC(C)(C)O)C(=O)O[C@@H]1[C@@H](O)CO (stereo partly drawn) [Synthesis Example 35, 2-O-(2-hydroxyisobutyl)-3-O-(2-hydroxybutyl) ascorbic acid]	++ (40-60%: ++)										++ (120%: ++)	++ (120-150%: ++)
